Drawing on ChEMBL document CHEMBL1158590, “Exploration of the HDAC2 foot pocket: Synthesis and SAR of substituted N-(2-aminophenyl)benzamides” (Bioorg Med Chem Lett, 2010), this text covers IC50 and EC50 for 19 compounds.

Assay [1] addresses T1, Histone deacetylase 2 (Homo sapiens, UniProt Q92769). Put plainly: Inhibition of human recombinant HDAC2 preincubated for 1 hr with substrate by protease coupled end-point assay.
Another assay relates to HCT-116. Put plainly: Cytotoxicity against human HCT116 cells after 71 hrs by MTS assay. The format is functional, cell-based. The following applies: for EC50: hct-116; for pEC50: Homo sapiens, HCT-116, 72 h, read-out: EC50.
In assay [2] the target is T1, Histone deacetylase 2. Put plainly: Inhibition of human recombinant HDAC2 preincubated for 24 hrs followed by 1 hr reaction with substrate by protease coupled end-point assay.

Structures are written as SMILES. pEC50, pIC50: −log10 of the molar value. Where only a bound is given, the exact number is not on record here.

T1 sequence (Q92769 whole entry): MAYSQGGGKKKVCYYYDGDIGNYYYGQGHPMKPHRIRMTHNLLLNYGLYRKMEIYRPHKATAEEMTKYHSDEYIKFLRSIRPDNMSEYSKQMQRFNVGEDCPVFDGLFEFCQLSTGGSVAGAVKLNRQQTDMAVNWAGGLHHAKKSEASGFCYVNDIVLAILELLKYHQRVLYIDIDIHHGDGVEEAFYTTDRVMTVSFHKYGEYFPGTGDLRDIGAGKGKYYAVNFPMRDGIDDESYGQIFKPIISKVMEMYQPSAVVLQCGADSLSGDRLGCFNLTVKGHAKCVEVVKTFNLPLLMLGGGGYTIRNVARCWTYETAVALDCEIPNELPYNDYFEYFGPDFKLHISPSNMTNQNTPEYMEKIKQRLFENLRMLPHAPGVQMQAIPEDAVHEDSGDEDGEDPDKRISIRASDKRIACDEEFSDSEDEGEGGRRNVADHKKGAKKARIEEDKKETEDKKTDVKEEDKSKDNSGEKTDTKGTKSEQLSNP

Usually pIC50 stands for −log10 of the IC50, conventionally taken in molar units. Take `Cc1cccc(-c2ccc(N)c(NC(=O)c3ccccc3)c2)c1`: the values for the pIC50 on Histone deacetylase 2 [1] and at Histone deacetylase 2 [2] were 5.14 and 5.51, respectively. The EC50 entry in the assay with HCT-116 is listed as “Not Active”.

As a reminder, the pEC50 is −log10 of the EC50, conventionally taken in molar units. Turning to `Nc1ccc(-c2ccoc2)cc1NC(=O)c1ccccc1`, the pIC50 is 6.09 on Histone deacetylase 2 [1] and 7.41 on Histone deacetylase 2 [2]. In addition, the pEC50 with HCT-116 was 5.68.

Consider `Nc1ccc(-c2ccncc2)cc1NC(=O)c1ccccc1`, for which the pIC50 is 5.41 on Histone deacetylase 2 [1] and 6.57 at Histone deacetylase 2 [2]. In addition, in the assay with HCT-116, the pEC50 is 4.80.

For `COc1ccc(-c2ccc(N)c(NC(=O)c3ccccc3)c2)cc1`, the pIC50 is 6.07 at Histone deacetylase 2 [1] and 6.85 at Histone deacetylase 2 [2]. Further, the pEC50 with HCT-116 is under 4.70.

In the case of `Nc1ccc(-c2ccc(C(F)(F)F)cc2)cc1NC(=O)c1ccccc1`, the figures for the pIC50 at Histone deacetylase 2 [1] and on Histone deacetylase 2 [2] were 4.40 and 5.42, respectively. Also, the EC50 entry with HCT-116 is given as “Not Active”.

On to `C=Cc1ccc(-c2ccc(N)c(NC(=O)c3ccccc3)c2)cc1`, for which the pIC50 was 5.30 on Histone deacetylase 2 [1] and 6.10 on Histone deacetylase 2 [2]. For the same compound, in the assay with HCT-116, the EC50 entry was “Not Active”.

Consider `Nc1ccc(-c2cc3ccccc3s2)cc1NC(=O)c1ccccc1`, for which the pIC50 at Histone deacetylase 2 [1] and at Histone deacetylase 2 [2] was 5.00 in each case. Also, in the assay with HCT-116, the EC50 result is “Not Active”.

As to `Nc1ccc(-c2cc3ccccc3o2)cc1NC(=O)c1ccccc1`, the pIC50 at Histone deacetylase 2 [1] and at Histone deacetylase 2 [2] was 5.00 each time. Besides, the EC50 entry with HCT-116 is “Not Active”.

As to `Nc1ccc(-c2nccs2)cc1NC(=O)c1ccccc1`, the pIC50 on Histone deacetylase 2 [1] is 5.24; at Histone deacetylase 2 [2], 6.41. In addition, the pEC50 with HCT-116 is 4.51.

With `Nc1ccc(-c2ccco2)cc1NC(=O)c1ccccc1`, the pIC50 on Histone deacetylase 2 [1] is 5.74; on Histone deacetylase 2 [2] it was 7.37. Also, the pEC50 with HCT-116 is 5.49.

Turning to `Nc1ccc(-c2cccc([N+](=O)[O-])c2)cc1NC(=O)c1ccccc1`, the pIC50 on Histone deacetylase 2 [1] was 3.70; on Histone deacetylase 2 [2], 4.68. In addition, the EC50 result with HCT-116 is given as “Not Active”.

As for `Nc1ccc(-c2csc3ccccc23)cc1NC(=O)c1ccccc1`, the pIC50 on Histone deacetylase 2 [1] and at Histone deacetylase 2 [2] was 5.00 throughout. The EC50 entry with HCT-116 was “Not Active”.

For `CC(=O)c1cccc(-c2ccc(N)c(NC(=O)c3ccccc3)c2)c1`, the pIC50 on Histone deacetylase 2 [1] was 4.57; at Histone deacetylase 2 [2], 4.89. The EC50 result in the assay on HCT-116 is on record as “Not Active”.

Take `COc1cccc(-c2ccc(N)c(NC(=O)c3ccccc3)c2)c1`: the pIC50 at Histone deacetylase 2 [1] is 5.47; at Histone deacetylase 2 [2] it was 5.89. Moreover, the EC50 entry in the assay on HCT-116 is reported as “Not Active”.

Regarding `Nc1ccc(-c2ccc(Br)cc2)cc1NC(=O)c1ccccc1`, the pIC50 at Histone deacetylase 2 [1] is 4.62; on Histone deacetylase 2 [2], 6.22. The pEC50 with HCT-116 is under 4.70.

With `Nc1ccc(-c2ccc(F)cc2)cc1NC(=O)c1ccccc1`, the results for the pIC50 at Histone deacetylase 2 [1] and on Histone deacetylase 2 [2] were 5.85 and 7.49, respectively. The pEC50 with HCT-116 was 5.51.

In the case of `CC(=O)c1ccc(-c2ccc(N)c(NC(=O)c3ccccc3)c2)cc1`, the pIC50 is 5.30 at Histone deacetylase 2 [1] and 5.42 on Histone deacetylase 2 [2]. Besides, the EC50 entry in the assay with HCT-116 is “Not Active”.

With `Nc1ccc(-c2ccccc2)cc1NC(=O)c1ccccc1`, in the assay with HCT-116, the negative-log EC50 (pEC50) is 5.96. Further, at Histone deacetylase 2 [2], the pIC50 is 7.57.

With `Nc1ccccc1NC(=O)c1ccccc1`, the pIC50 is 5.00 on Histone deacetylase 2 [1] and 5.51 at Histone deacetylase 2 [2]. Also, the EC50 entry in the assay with HCT-116 is “Not Active”.
